Results on one molecule are retold here after patent US20210386695A1 (priority 2020, published 2021).

In data set [1] the target is SARS-CoV-2 M^pro (Severe acute respiratory syndrome coronavirus 2, UniProt P0DTD1). In words: FRET based assay of SARS-CoV-2 Mpro protease activity. The format is biochemical.
Data set [2] concerns the target SARS-CoV-2 PL^pro (Severe acute respiratory syndrome coronavirus 2, UniProt P0DTD1). The data set can be described thus: SARS-CoV-2 PLpro protease activity, peptide substrate Z-RLRGG-AMC. The format is biochemical.
Data set [3] concerns wild type SARS-CoV-2 pseudo-particles. In words: microbe, parasite or virus in culture. The format is cell-based. The conditions noted are these: Severe acute respiratory syndrome coronavirus 2, Vero C1008.
Data set [4] has the same test system. It counts as cell-based.
For data set [5] the test system is unchanged. It counts as cell-based. The source holds these as a separate data set.
The nature of data set [6]: in vitro. The conditions noted are these: African green monkey.
[7] abbreviates: read-out: inhibitory effect on the protease activity of SARS-CoV-2 PL^pro.

In the case of `CCN(CC)C(=S)SSC(=S)N(CC)CC` [disulfiram], in data set [1], the inhibition at 1 µM is 16%, the inhibition at 5 µM was found to be 80.9% and the inhibition at 10 µM came to 87.1%. Moreover, the “inhibition of protease activity of SARS-CoV-2 M^pro” value in data set [1] (30 μM disulfiram) is “full inhibition”. Also, the “inhibition of protease activity of SARS-CoV-2 M^pro” value in data set [1] (60 μM disulfiram) is recorded as “full inhibition”. In addition, in data set [2] (1 μM disulfiram), the “inhibitory effect on the protease activity of SARS-CoV-2 PL^pro” value was “does not inhibit”. Besides, in data set [2] (setting [7]), the inhibition at 5 µM is 21.7%, the inhibition at 10 µM came out at 36.3%, the inhibition at 30 µM amounted to 77.9% and the inhibition at 60 µM worked out at 99.9%. Besides, the midpoint of the response in data set [3], the EC50, lay at 3.1 µM. The “block of viral pseudo-particles infection” value in data set [4] was “dose-dependent manner”. In addition, the “inhibitory capacity in furin-expressing Vero E6 cells compared with Vero E6 cells” value in data set [5] is recorded as “similar”. This molecule gave a CC50 in data set [6] of 15.7 µM.
